According to US20070258893A1, “Compositions and methods for imaging expression of cell surface receptors” (priority 2003, published 2007):
“Also recorded” adds a separate entry of the source. Positions of bridges follow the written chain, without caps; N, C: chain ends. Non-standard residues stand in square brackets, D forms with d. Residues, ends and D or L forms follow the SMILES beside them. No end group written: not given here. 2Nal = N[C@@H](Cc1ccc2ccccc2c1)C(=O)O; Cit = NC(=O)NCCC[C@H](N)C(=O)O

Tests used:
CXCR4/SDF-1 = assay: LANCE cAMP assay (TR-FRET), SDF-1-induced cAMP reduction; format: cell-based; settings: SDF-1 0-100 ng/ml
Description: (§1) A salt form of 6-18-10, WZ811S, was tested in a matrigel invasion assay to measure its ability to inhibit CXCR4/SDF-mediated invasion. […] Thus, Perkin-Elmer's LANCE cAMP assay kit (Cat # AD0262) that was based on time-resolved fluorescence resonance energy transfer (TR-FRET) was tested. […] The results were measured in Perkin-Elmer's Envision multi-label microplate reader (384-wells) with conditions of flash energy area=low, flash energy level=239, counting cycle=1 ms, and ex/em=340 nm/665 nm.

[1] = test system: CXCR4/SDF-1 mediated invasion of MDA-MB-231; settings: Liang et al.; cited from earlier work
MT4 cells = settings: cited from earlier work
HIV = settings: cited from earlier work; for SI=CC50/EC50: MT4 cells; for EC50: read-out: concentration required for 50% protection of HIV-induced cytopathogenicity in MT4 cells (EC50)
[2] = Description: Additionally, a synthetic 14-mer peptide blocked the CXCR4 receptor binding to its ligand SDF-1 and inhibited CXCR4/SDF-1 mediated invasion in vitro and metastasis in vivo with a higher specificity than anti-CXCR4 antibodies (R & D Systems). The anti-invasion and anti-metastasis activity of this peptide correlated well with their inhibitory activity on SDF-1α binding to CXCR4. This antagonist is proven safe by proliferation assay, animal histology, and hemopoietic progenitor cell colony formation.
HUVECs = assay: SDF-1 induced endothelial tubular formation; format: cell-based; settings: SDF-1 for 18 hours, pretreatment, P<0.001
metastatic 686LN cells [3] = assay: Orthotopic SCCHN xenograft model (BLI, CD31 immunostaining, H&E of lungs); format: in vivo, nude mice
Description: FIG. 2 illustrates that CXCR4 antagonists block tumor malignancy in head and neck cancer. […] Subclones of squamous cell carcinoma of the head and neck (SCCHN) cell line 686LN were generated by passing these cells through several serial metastases in the SCCHN orthotopic animal model. The sub-populations of 686LN cells included one group with elevated metastatic activity and another group with non-metastatic parental cells. […] FIG. 2C is a scanned image of bioluminescence imaging of orthotopic xenografts of head and neck cancer treated with TN 14003. Metastatic 686LN cells (5×10^5) were injected into the neck area of nude mice, and they were divided into two groups, one with TN14003 treatment and the other with control peptide injection. 1 mg/kg of TN14003 was injected three times weekly i.p. TN14003 treatment started after tumors were established (day 8). Primary tumors were immunostained by using anti-CD31 antibody, and the microvessel density was calculated by averaging CD31-positive microvessels of primary tumors from each group (n=4) as illustrated in the bar graph of FIG. 2D. FIG. 2E is a scanned image of representative H & E stainings (original magnification, ×10) from two mice from each group.
The anti-tumor efficacy of the CXCR4 antagonist as also tested in an orthotopic SCCHN animal model. The metastatic cells were stably transfected with the luciferase gene (pGL2-control from Promega) for in vivo tracking purposes. These cells (500,000 cells) were injected into the submandibular subcutaneous tissue to the mylohyoid muscle of the nude mice to create an orthotopic SCCHN xenograft, and the tumor growth was followed using non-invasive Bioluminescence Imaging (BLI). […] The intraperitoneal treatment of TN14003 started 7 days after the tumor injection and lasted for 23 days compared to that of the control peptide. […]

metastatic 686LN cells [4] = assay: Experimental head and neck cancer metastasis model (tail vein injection), FDG-PET imaging; format: in vivo; settings: metastatic 686LN cells intravenously, nude mice
[5] = test system: CXCR4-mediated cancer metastasis; assay: CXCR4-mediated cancer metastasis in vivo; settings: TN14003 three times weekly injection; WZ811S more frequent injection schedule
CXCR4 [6] = target: T1, CXCR4 (Homo sapiens, UniProt P61073); settings: cited from earlier work
T1 sequence (P61073 whole entry): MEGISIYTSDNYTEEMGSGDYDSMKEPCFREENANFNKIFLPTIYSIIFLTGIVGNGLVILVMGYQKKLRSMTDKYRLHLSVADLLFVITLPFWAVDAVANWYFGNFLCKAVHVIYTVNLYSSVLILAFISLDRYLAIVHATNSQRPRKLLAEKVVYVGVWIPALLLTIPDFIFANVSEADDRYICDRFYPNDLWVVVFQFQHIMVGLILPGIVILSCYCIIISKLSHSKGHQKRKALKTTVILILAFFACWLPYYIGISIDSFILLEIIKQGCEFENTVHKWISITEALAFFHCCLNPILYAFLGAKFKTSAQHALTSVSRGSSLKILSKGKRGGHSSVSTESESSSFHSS

[7] = in vivo; cited from earlier work
[8] = test system: CXCR4/SDF-1 mediated invasion of MDA-MB-231; assay: Matrigel invasion assay with SDF-1 as chemoattractant; format: cell-based; settings: 100 nM
Description: Invasive cells penetrate matrigel and end up on the other side of the matrigel.
as §1

CXCR4 [9] = target: T1, CXCR4; assay: Competitive binding assay against biotin-labeled TN14003 on MDA-MB-231 cells (immunofluorescence); design: endogenous in cells; host or cells: MDA-MB-231; settings: cells pre-incubated with compound
Description: FIG. 4A illustrates the structure of TN14003-Biotin. […] 20,000 cells of MDA-MB-231 were seeded in 8-well slide chamber two days before experiments. Various concentration of the selected compounds (10,100, and 1000 nM) were added to the separate wells, incubated for 10 minutes at room temperature, and the cells were fixed in 4% of ice-cold paraformaldelyde. The slides were subsequently incubated with 50 ng/ml of biotin-TN14003 and streptavidin-Rhomdamine, followed by sytox blue. CXCR4—Red, nuclei-blue (sytox blue)
Screening of Small Molecule CXCR4 Antagonists With a Competitive Binding Assay Against Biotin-Labeled TN14003: T140 analogs, including TN14003, bind to the ligand binding site on CXCR4, blocking the CXCR4/SDF-1 interaction, and intervening in the progression of cancer metastasis. The discovery and development of effective, orally available small molecules also remains a major focus for many medicinal chemistry programs. […] Currently, the metal-chelating cyclams and bicyclams represent the sole class of non-peptide molecules that are known to block CXCR4. […] Trent, et al. Lipid Bilayer Simulations of XCXR4 with Inverse Agonists and Weal Partial Agonists. J. Biol. Chem. 2003 Nov. 21; 278(47):47136-44. […] This information was used to create a library of compounds with multiple, basic nitrogens throughout the molecular framework that are structurally different from AMD3100. […]

[10] = target: T2, CXCR4 receptor on tumor cells (Homo sapiens, UniProt P61073); assay: Immunofluorescence competition with biotin-labeled CXCR4 antagonist and streptavidin-conjugated rhodamine; format: binding; settings: labeled via HYNIC and [19F]-FBA
T2 construct: endogenous in cells; probably MDA-MB-231 as in the drug screen
T2 sequence (P61073 whole entry): as above
Description: FIG. 11A illustrates sub-fractions of a mixture of TN14003-HYNIC and FBA. After the conjugation steps, the mixture was fractionated with increasing acetonitrile concentration in a mobile phase. Mass spectroscopy data confirmed that fraction 6 contained TN14003-HYNIC, while the fraction […] contained 19F-labeled TN14003 (final product). Fractions 6 and 9 are indicated by arrows on the graph.
Using biotin-labeled CXCR4 antagonist along with streptavidin-conjugated rhodamine, the binding efficiency of the fluorine 19-labeled CXCR4 antagonist to CXCR4 receptor on tumor cells was determined and compared to that of the unlabeled CXCR4 antagonist in immunofluorescence as was done for drug screening, described above. Cells incubated with only streptavidin-conjugated rhodamine (negative control) were compared to cells incubated with both the biotin-labeled CXCR4 antagonist and streptavidin-conjugated rhodamine (positive control). When equal amounts of unlabeled CXCR4 antagonist were added into the biotin-labeled antagonist mixture, the red fluorescence decreased due to the competition between biotin-labeled antagonist and unlabeled antagonist. The same amount of red fluorescence decrease was seen when fluorine 19-labeled antagonist was added to the biotin-labeled antagonist mixture (FIG. 11B). […]

## SDF-1: stromal cell-derived factor 1, ligand of CXCR4
CXCR4/SDF-1
  EC80 of absorption increase at 665 nM: 0.03 µg/mL

## N=C(N)NCCC[C@H](NC(=O)[C@@H]1CSSC[C@H](NC(=O)[C@H](Cc2ccc3ccccc3c2)NC(=O)[C@H](CCCNC(=N)N)NC(=O)[C@@H](N)CCCNC(=N)N)C(=O)N[C@@H](Cc2ccc(O)cc2)C(=O)N[C@@H](CCCNC(N)=O)C(=O)N[C@@H](CCCCN)C(=O)N[C@H](CCCCN)C(=O)N2CCC[C@H]2C(=O)N[C@@H](Cc2ccc(O)cc2)C(=O)N[C@@H](CCCNC(=N)N)C(=O)N[C@@H](CCCNC(N)=O)C(=O)N1)C(N)=O [TN14003, H-Arg-Arg—NaI—Cys-Tyr—Cit-Lys—DLys—Pro-Tyr-Arg—Cit—Cys-Arg—NH2] (H-RR[2Nal]CY[Cit]K[dK]PYR[Cit]CR-NH2; disulfide 4-13)
[1]
  blocking SDF-1-mediated invasion versus anti-CXCR4 antibody: more effectively than an anti-CXCR4 antibody
MT4 cells
  CC50: 410 µM
  cytotoxicity compared to T140: far less cytotoxic
HIV
  SI=CC50/EC50: 680,000
  EC50: 0.0006 µM
[2]
  safety: proven safe
HUVECs
  SDF-1 induced tubular network formation: inhibited tubular network formation
Metastatic 686LN cells [3]; 1 mg/kg, i.p., pre-established tumors
  primary tumor growth (bioluminescence imaging): suppressed even the primary tumor
Metastatic 686LN cells [3]; 1 mg/kg, i.p., primary tumors
  tumor angiogenesis / microvessel density (CD31 immunostaining): significantly blocked tumor angiogenesis at the primary site
Metastatic 686LN cells [3]; orthotopic model, treated vs control group
  lung metastases (H&E): reduction in the metastases
Metastatic 686LN cells [4]
  lung metastasis (FDG-PET, confirmed by histology): prevented lung metastasis of SCCHN; also recorded: inhibited lung metastasis
[5]
  blocking of CXCR4-mediated metastasis in vivo: completely inhibited CXCR4-mediated cancer metastasis in vivo

## c1cc(CN2CCCNCCNCCCNCC2)ccc1CN1CCCNCCNCCCNCC1 [AMD3100]
CXCR4 [6]
  functional character at CXCR4: weak partial agonist
HUVECs
  SDF-1 induced tubular network formation: could not
[7]
  clinical safety outcome: withdrawn due to cardiotoxicity
[8]
  blocking SDF-1-induced invasion: not as effective as WZ811S
CXCR4 [9]
  concentration needed to compete against biotin-labeled TN14003: 10 µM

## H-Arg-Arg—NaI—Cys-Tyr-Arg-Lys—DLys—Pro-Tyr-Arg—Cit—Cys-Arg—OH (H-RR[2Nal]CYRK[dK]PYR[Cit]CR-OH; ends and bridges not checked) [T140, reference compound]
MT4 cells
  CC50: 59 µM
HIV
  SI=CC50/EC50: 17,879
  EC50: 0.0033 µM

## ^19F-labeled TN14003: TN14003-HYNIC conjugated with non-radioactive [19F]-fluorobenzaldehyde (RR[2Nal]CY[Cit]K[dK]PYR[Cit]CR-NH2; disulfide 4-13; also: HYNIC linker conjugated as hydrazone with [19F]-fluorobenzaldehyde, attachment site not given here)
[10]
  blocking of binding of biotin-labeled TN14003 to CXCR4 on cell surface by preincubation: completely blocked
[10]; equal amounts
  binding efficiency to CXCR4 relative to unlabeled antagonist (red fluorescence decrease): the same as that of unlabeled (original) antagonist
